From ChEMBL document CHEMBL6114948, “Deep mutational scanning-guided design of a high-affinity helix-loop-helix peptide targeting G-CSF receptor” (Bioorg Med Chem Lett, 2025) come the findings set out here.

Residues, ends and D or L forms follow the SMILES beside them.

A short description of data set [1]: Binding affinity to recombinant G-CSFR extracellular domain (unknown origin) by surface plasmon resonance analysis. More on the design: species or system Homo sapiens. On the technique in general: SPR reads the build-up and loss of mass on a sensor chip optically.
A short description of data set [2]: Stability of the compound at 20 deg C assessed as change in alpha-helical structure by CD spectra analysis. In kind it is physicochemical.
The target in data set [3] is T1, Granulocyte colony-stimulating factor receptor (Homo sapiens) (UniProt Q99062).
T1 sequence (whole entry): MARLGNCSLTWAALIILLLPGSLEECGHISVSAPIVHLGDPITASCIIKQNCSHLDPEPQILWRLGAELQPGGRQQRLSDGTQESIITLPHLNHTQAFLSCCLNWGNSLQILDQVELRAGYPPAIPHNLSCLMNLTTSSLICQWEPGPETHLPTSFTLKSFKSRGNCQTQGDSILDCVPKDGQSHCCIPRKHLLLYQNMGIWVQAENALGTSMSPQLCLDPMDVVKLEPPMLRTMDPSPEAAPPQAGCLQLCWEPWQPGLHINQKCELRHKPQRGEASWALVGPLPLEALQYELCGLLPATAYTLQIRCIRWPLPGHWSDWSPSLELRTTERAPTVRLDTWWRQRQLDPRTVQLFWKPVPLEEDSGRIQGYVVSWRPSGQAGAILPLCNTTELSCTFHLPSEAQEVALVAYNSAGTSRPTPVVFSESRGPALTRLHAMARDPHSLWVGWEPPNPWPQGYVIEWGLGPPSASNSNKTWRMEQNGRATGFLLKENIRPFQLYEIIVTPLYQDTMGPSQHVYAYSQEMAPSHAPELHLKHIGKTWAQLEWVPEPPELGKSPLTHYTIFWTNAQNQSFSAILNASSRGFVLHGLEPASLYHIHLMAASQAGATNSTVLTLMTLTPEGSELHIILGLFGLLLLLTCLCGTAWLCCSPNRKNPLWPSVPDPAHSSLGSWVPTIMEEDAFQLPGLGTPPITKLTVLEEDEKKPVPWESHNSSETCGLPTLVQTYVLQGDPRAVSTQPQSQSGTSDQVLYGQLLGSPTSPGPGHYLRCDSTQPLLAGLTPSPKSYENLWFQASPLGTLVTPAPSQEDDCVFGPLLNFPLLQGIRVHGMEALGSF
Nature of the data set: Potency index, ratio of P8-2KA KD to test compound KD for binding affinity to recombinant G-CSFR extracellular domain (unknown origin).

A word on the Kd: it is the constant that tells how readily two partners part at equilibrium. Turning to `CC[C@H](C)[C@H](NC(=O)[C@H](CCC(=O)O)NC(=O)[C@H](C)NC(=O)[C@H](CCC(=O)O)NC(=O)[C@H](CC(C)C)NC(=O)[C@H](C)NC(=O)[C@H](C)NC(=O)[C@H](CC(C)C)NC(=O)[C@H](CCC(=O)O)NC(=O)[C@H](C)NC(=O)[C@H](C)NC(=O)[C@@H](N)CS)C(=O)N[C@@H](C)C(=O)N[C@@H](C)C(=O)N[C@@H](CC(C)C)C(=O)N[C@@H](CCC(=O)O)C(=O)NCC(=O)NCC(=O)NCC(=O)NCC(=O)NCC(=O)NCC(=O)NCC(=O)N[C@@H](Cc1ccc(O)cc1)C(=O)N[C@@H](CC(C)C)C(=O)N[C@@H](CCC(=O)O)C(=O)N[C@@H](CCSC)C(=O)N[C@@H](CC(C)C)C(=O)N[C@@H](CCCCN)C(=O)N[C@@H](CC(C)C)C(=O)N[C@@H](CCCCN)C(=O)N[C@@H](CC(C)C)C(=O)N[C@@H](C)C(=O)N[C@@H](CCC(=O)O)C(=O)N[C@@H](C)C(=O)N[C@@H](CCCCN)C(=O)N[C@@H](CCCNC(=N)N)C(=O)N[C@@H](Cc1ccc(O)cc1)C(=O)N[C@@H](CS)C(=O)O` (H-CAAELAALEAEIAALEGGGGGGGYLEMLKLKLAEAKRYC-OH), the Kd in data set [1] came out at 0.24 nM.

As for `CC[C@H](C)[C@H](NC(=O)[C@H](C)NC(=O)[C@H](CC(C)C)NC(=O)[C@H](CCC(=O)O)NC(=O)[C@H](C)NC(=O)[C@H](C)NC(=O)[C@@H](N)CS)C(=O)N[C@@H](CC(C)C)C(=O)N[C@@H](CCC(=O)O)C(=O)N[C@@H](C)C(=O)N[C@@H](CCC(=O)O)C(=O)N[C@H](C(=O)N[C@@H](C)C(=O)N[C@@H](C)C(=O)N[C@@H](CC(C)C)C(=O)N[C@@H](CCC(=O)O)C(=O)NCC(=O)NCC(=O)NCC(=O)NCC(=O)NCC(=O)NCC(=O)NCC(=O)N[C@@H](CCCCN)C(=O)N[C@@H](CC(C)C)C(=O)N[C@@H](CCC(=O)O)C(=O)N[C@@H](CCSC)C(=O)N[C@@H](CC(C)C)C(=O)N[C@@H](CCCCN)C(=O)N[C@@H](CC(C)C)C(=O)N[C@@H](CCCCN)C(=O)N[C@@H](CC(C)C)C(=O)N[C@@H](C)C(=O)N[C@@H](CCC(=O)O)C(=O)N[C@@H](C)C(=O)N[C@@H](CCCCN)C(=O)N[C@@H](CCCNC(=N)N)C(=O)N[C@@H](Cc1ccc(O)cc1)C(=O)N[C@@H](CS)C(=O)O)[C@@H](C)CC` (H-CAAELAILEAEIAALEGGGGGGGKLEMLKLKLAEAKRYC-OH), the Kd in data set [1] came out at 0.89 nM.

For the compound `CC[C@H](C)[C@H](NC(=O)[C@H](C)NC(=O)[C@H](CC(C)C)NC(=O)[C@H](CCC(=O)O)NC(=O)[C@H](C)NC(=O)[C@H](C)NC(=O)[C@@H](N)CS)C(=O)N[C@@H](CC(C)C)C(=O)N[C@@H](CCC(=O)O)C(=O)N[C@@H](C)C(=O)N[C@@H](CCC(=O)O)C(=O)N[C@H](C(=O)N[C@@H](C)C(=O)N[C@@H](C)C(=O)N[C@@H](CC(C)C)C(=O)N[C@@H](CCC(=O)O)C(=O)NCC(=O)NCC(=O)NCC(=O)NCC(=O)NCC(=O)NCC(=O)NCC(=O)N[C@@H](Cc1ccc(O)cc1)C(=O)N[C@@H](CC(C)C)C(=O)N[C@@H](C)C(=O)N[C@@H](CCSC)C(=O)N[C@@H](CC(C)C)C(=O)N[C@@H](CCCCN)C(=O)N[C@@H](CC(C)C)C(=O)N[C@@H](CCCCN)C(=O)N[C@@H](CC(C)C)C(=O)N[C@@H](C)C(=O)N[C@@H](CCC(=O)O)C(=O)N[C@@H](C)C(=O)N[C@@H](CCCCN)C(=O)N[C@@H](CCCNC(=N)N)C(=O)N[C@@H](Cc1ccc(O)cc1)C(=O)N[C@@H](CS)C(=O)O)[C@@H](C)CC` (H-CAAELAILEAEIAALEGGGGGGGYLAMLKLKLAEAKRYC-OH), in data set [1], the Kd was 0.16 nM.

With `CC[C@H](C)[C@H](NC(=O)[C@H](C)NC(=O)[C@H](CC(C)C)NC(=O)[C@H](CCC(=O)O)NC(=O)[C@H](C)NC(=O)[C@H](C)NC(=O)[C@@H](N)CS)C(=O)N[C@@H](CC(C)C)C(=O)N[C@@H](CCC(=O)O)C(=O)N[C@@H](C)C(=O)N[C@@H](CCC(=O)O)C(=O)N[C@H](C(=O)N[C@@H](C)C(=O)N[C@@H](C)C(=O)N[C@@H](CC(C)C)C(=O)N[C@@H](CCC(=O)O)C(=O)NCC(=O)NCC(=O)NCC(=O)NCC(=O)NCC(=O)NCC(=O)NCC(=O)N[C@@H](Cc1ccc(O)cc1)C(=O)N[C@@H](CC(C)C)C(=O)N[C@@H](CCC(=O)O)C(=O)N[C@@H](CCSC)C(=O)N[C@@H](CC(C)C)C(=O)N[C@@H](CCCCN)C(=O)N[C@@H](CC(C)C)C(=O)N[C@@H](CCCCN)C(=O)N[C@@H](CC(C)C)C(=O)N[C@@H](C)C(=O)N[C@@H](CCC(=O)O)C(=O)N[C@@H](C)C(=O)N[C@@H](CCCCN)C(=O)N[C@@H](CCCNC(=N)N)C(=O)N[C@@H](Cc1ccc(O)cc1)C(=O)N[C@@H](CS)C(=O)O)[C@@H](C)CC` (H-CAAELAILEAEIAALEGGGGGGGYLEMLKLKLAEAKRYC-OH), in data set [1], the dissociation constant (Kd) is 0.18 nM.

Regarding `CC[C@H](C)[C@H](NC(=O)[C@H](C)NC(=O)[C@H](CC(C)C)NC(=O)[C@H](CCC(=O)O)NC(=O)[C@H](C)NC(=O)[C@H](C)NC(=O)[C@@H](N)CS)C(=O)N[C@@H](CC(C)C)C(=O)N[C@@H](CCC(=O)O)C(=O)N[C@@H](C)C(=O)N[C@@H](CCC(=O)O)C(=O)N[C@H](C(=O)N[C@@H](C)C(=O)N[C@@H](C)C(=O)N[C@@H](CC(C)C)C(=O)N[C@@H](CCC(=O)O)C(=O)NCC(=O)NCC(=O)NCC(=O)NCC(=O)NCC(=O)NCC(=O)NCC(=O)N[C@@H](Cc1ccc(O)cc1)C(=O)N[C@@H](CC(C)C)C(=O)N[C@@H](CCC(=O)O)C(=O)N[C@@H](CCSC)C(=O)N[C@@H](CC(C)C)C(=O)N[C@@H](CCCCN)C(=O)N[C@@H](CC(C)C)C(=O)N[C@@H](CCCCN)C(=O)N[C@@H](CC(C)C)C(=O)N[C@@H](C)C(=O)N[C@@H](CCC(=O)O)C(=O)N[C@@H](CC(C)C)C(=O)N[C@@H](CCCCN)C(=O)N[C@@H](CCCNC(=N)N)C(=O)N[C@@H](Cc1ccc(O)cc1)C(=O)N[C@@H](CS)C(=O)O)[C@@H](C)CC` (H-CAAELAILEAEIAALEGGGGGGGYLEMLKLKLAELKRYC-OH), the Kd in data set [1] was 2.8 nM.

As to `CC[C@H](C)[C@H](NC(=O)[C@H](C)NC(=O)[C@H](CC(C)C)NC(=O)[C@H](CCC(=O)O)NC(=O)[C@H](C)NC(=O)[C@H](C)NC(=O)[C@@H](N)CS)C(=O)N[C@@H](CC(C)C)C(=O)N[C@@H](CCC(=O)O)C(=O)N[C@@H](C)C(=O)N[C@@H](CCC(=O)O)C(=O)N[C@@H](CC(C)C)C(=O)N[C@@H](C)C(=O)N[C@@H](C)C(=O)N[C@@H](CC(C)C)C(=O)N[C@@H](CCC(=O)O)C(=O)NCC(=O)NCC(=O)NCC(=O)NCC(=O)NCC(=O)NCC(=O)NCC(=O)N[C@@H](Cc1ccc(O)cc1)C(=O)N[C@@H](CC(C)C)C(=O)N[C@@H](CCC(=O)O)C(=O)N[C@@H](CCSC)C(=O)N[C@@H](CC(C)C)C(=O)N[C@@H](CCCCN)C(=O)N[C@@H](CC(C)C)C(=O)N[C@@H](CCCCN)C(=O)N[C@@H](CC(C)C)C(=O)N[C@@H](C)C(=O)N[C@@H](CCC(=O)O)C(=O)N[C@@H](C)C(=O)N[C@@H](CCCCN)C(=O)N[C@@H](CCCNC(=N)N)C(=O)N[C@@H](Cc1ccc(O)cc1)C(=O)N[C@@H](CS)C(=O)O` (H-CAAELAILEAELAALEGGGGGGGYLEMLKLKLAEAKRYC-OH), the Kd in data set [1] came to 0.49 nM.

“H-AELAALEAELAALEGGGGGGGKLAMLKLKLAELKRY-OH”: the Stability result in data set [2] was “Stable”. Also, the Kd in data set [1] amounted to 380 nM.

Consider “H-AELAILEAEIAALEGGGGGGGYLEMLKLKLAEAKRY-OH”, for which, in data set [2], the Stability entry is recorded as “Stable”. Moreover, in data set [1], the Kd was 16 nM. Moreover, the Ratio in data set [3] was 24.
